US20180214462A1 (priority 2015, published 2018)
“Also recorded” adds a separate entry of the source.

Assays:
[1] = system: exposed cortex; experiment: Focally-induced cortical seizures (4AP or PTX): intravital fluorescence angiography of vessel diameter and BBB permeability; format: in vivo, rat; conditions: for increase in vessel diameter: seizures induced by 4AP (n=6) or PTX (n=2), pooled n=8, immediate
Procedure: All experimental procedures in animals were approved by the Ben-Gurion University ethics committee for animal testing. Unless otherwise mentioned, all materials were purchased from Sigma-Aldrich ltd. Surgical procedures in male Spraugue-Dawley rats (200-380 g BW) were performed as previously reported (Prager et al., 2010). Rats were deeply anesthetized by intraperitoneal administration of either isoflurane or ketamine (100 mg/ml, 0.08 ml/100 gr) and xylasine (20 mg/ml, 0.06 ml/100 gr). The tail vein was catheterized, and animals were placed in a stereotactic frame (FIG. 4A) under a SteREO Lumar V12 fluorescence microscope (Zeiss, Gottingen, Germany).
(§1) Body temperature was continuously monitored and kept stable at 37±0.5° C. using a feedback-controlled heating pad (Physitemp Ltd.). Heart rate, breath rate and oxygen saturation levels were continuously monitored using STARR (Life Sciences Ltd.). A cranial section (4 mm caudal, 2 mm frontal, 5 mm lateral to bregma) was removed over the right sensory-motor cortex. The dura and arachnoid layers were removed (FIG. 4B) and the exposed cortex was continuously perfused with ACSF (Prager et al., 2010) containing (in mM): 124 NaCl, 26 NaHCO3, 1.25 NaH2PO4, […], 2 CaCl2, 3 KCl, and 10 Glucose (pH 7.4).
(§2) To block neuronal activity tetrodotoxin (TTX) (Narahashi et al., 1964) (10 μM), 6-Cyano-2,3-dihydroxy-7-nitro-quinoxaline (CNQX) (Yoshiyama et al., 1995) (50 μM), D-AP5 (Morris, 1989) (50 μM) and picrotoxin (PTX) (Yoon et al., 1993) (50 μM) were added to the perfusing solution (ACSF). To induce prolonged seizures (status epilepticus, SE), 4AP (Uva et al., 2013) (500 μM) or PTX (100 μM) were added to the ACSF. Electrocorticgram (ECoG) was recorded using bi-polar electrodes and a telemetric recording system (DSI Ltd.). In some cases, thrombotic stroke was induced using photothrombosis (Prado, 1987). Detection of calcium ions in the rat cortex was done with calcium chelators as previously reported (Stosiek et al., 2003). 50 μg of the fluorescent chelator OGB were dissolved in 4 μl of dimethyl sulfoxide) DMSO) containing 20% pluronic f-127. This mixture was diluted in […] of a loading solution containing (in mM): 150 NaCl, 2.5 KCl, 10 HEPES, in ddH2O (pH=7.4).
(§3) Dynamic imaging of regional cerebral blood flow (rCBF) and BBB permeability measurements were performed as reported (Chassidim et al., 2014; Prager et al., 2010). The non-BBB permeable fluorescent dye, sodium fluorescein (NaFlu) was injected intravenously (1 mg/ml, 0.2 ml/injection, in 0.9% NaCl). Full-resolution (658×496 pixel) images of cortical surface vessels were obtained (5 frames/second, EMCCD camera: Andor Technology, DL-658 M-TIL, FIG. 4C) before, during and after injection of the tracer. Offline image analysis was carried out using MATLAB (MathWorks, Natick, USA) and included: sub-pixel image registration, segmentation using noise filtration, hole-filling and adaptive threshold to produce a binary image, separating blood vessels from extra-vascular regions (FIG. 4D). Signal intensity changes over time and space were then analyzed so that each pixel was represented by intensity vs. time (IT) curve (FIG. 4E). An arterial IT curve (AIF) was created by spatially averaging signal intensity through time in the primary artery. A BBB permeability index (PI) (FIG. 4E) was calculated for each extra-vascular pixel as the ratio between IT curve and AIF, from the point of the second decline phase to the end of the measurement
(§4) The PI indicates how much tracer remains in extra-vascular tissue in relation to the applied amount. PI>1 indicates tracer accumulation and defines BBB dysfunction. Fitting a PI to each extra-vascular pixel enabled spatial mapping of BBB permeability (FIG. 4F). The PI for each vascular pixel was set to 0, and therefore vessels were excluded from the map. The global permeability of a region was calculated by averaging its PI values. […]

[2] = Preventing intracellular calcium elevation with calcium chelators in vivo; conditions: data not shown
Source text: The observations that direct application of NMDA similarly enhances permeability, and that permeability increase is blocked in the presence of NMDA-R blockers (FIG. 2A) indicate that the effect of glutamate is mediated by NMDA-R. Our experiments showing increased intracellular calcium in vascular endothelium in response to glutamate are consistent with previous in vitro data showing that NMDA-mediated effects are dependent on increased intracellular calcium (Krizbai et al., 1998; Sharp et al., 2003). However, we cannot rule out non-calcium dependent signaling mechanisms and the role of other components of the neurovascular unit, such as astrocytes and pericytes, which could also respond to glutamate and signal brain endothelial cells to alter permeability (Carmignoto and Gómez-Gonzalo, 2010). […] The intracellular signaling leading to enhanced permeability is also not clear. […] The latter seems unlikely with the relatively short time delay between insult (seizure/stroke) and enhanced permeability. Modulation of transcellular transport mechanisms (e.g. intercellular adhesion molecule-ICAM mediated) (Yang et al., 2005)) may also be involved.

[3] = system: cortex of rats; format: in vivo, rat; conditions: for increase in vessel permeability: cortical perfusion 1 mM, TTX, CNQX and PTX present
Procedure: as §1, §2, §3
as §4, with “values. Permeability measurements with this approach are possible only for regions with fully functional vasculature as the transfer of molecules between vessel and parenchyma is quantified. Increased permeability in damaged vessels is not depicted here.” for “values.”

[4] = system: peri-ischemic cortex; experiment: Photothrombosis stroke model: BBB dysfunction in the peri-ischemic cortex; format: in vivo, rat
Procedure: as §3, with “Offline image analysis was carried out using MATLAB (MathWorks, Natick, USA) and included: sub-pixel image registration, segmentation using noise filtration, hole-filling and adaptive threshold to produce a binary image, separating blood vessels from extra-vascular regions (FIG. 4D).” left out, “An arterial IT curve (AIF) was created by spatially averaging signal intensity through time in the primary artery.” left out
The PI indicates how much tracer remains in extra-vascular tissue in relation to the applied amount. […] The global permeability of a region was calculated by averaging its PI values. Permeability measurements with this approach are possible only for regions with fully functional vasculature as the transfer of molecules between vessel and parenchyma is quantified. […]

[5] = system: exposed rat neocortex; experiment: NMDA-R antagonists during 4AP-induced recurrent seizures: BBB permeability, ECoG, vessel diameter; format: in vivo; conditions: 4AP seizures, Memantine 40 mg/kg IP or D-AP5 100 μM topical; for seizure-induced permeability increase / BBB damage: pooled, p=0.02
Procedure: as §3
ECoG was recorded using a telemetric system (DSI Ltd.). Two electrodes were implanted, one attached to an intra-cranial screw adjacent to the exposed cortex, and the second placed over the exposed cortex while secured with bone wax and dental cement. In-house MATLAB scripts were used to display and record signals for post-processing. Signals were sampled at 200 Hz and filtered using a MATLAB simulated Butterworth filter, so to display only the desired frequency band (10-40 Hz). The mean power was calculated using the MATLAB “pwelch” function.
Since prolonged and recurrent epileptic seizures may also be associated with vascular pathology and damage to the BBB through the activation of NMDA-R, the effect of NMDA-R antagonists after the induction of recurrent seizures in anesthetized rats was tested. The epileptogenic substance 4AP was applied on the surface of the brain while monitoring ECoG.
Animals were treated with either topical application of the specific NMDA-R blocker D-AP5 (100 μM) (prior to and during seizure induction), or systemically with the FDA approved memantine (40 mg/kg, intraperitonealy, immediately following seizure onset).

[6] = system: vessels' wall (rat neocortex); experiment: Calcium imaging (OGB, probe-based confocal laser endomicroscopy) in vessel wall after drop application of glutamate; format: in vivo
Procedure: as §2
The exposed cortex was incubated with the final mixture for 1 hour. Probe-based confocal laser endomicroscopy (PCLE) was performed using Cellvizio dual band (Mauna Kea Technologies Ltd.) at 488 and 660 nm. […]
In control experiments, brains were exposed to ACSF for 60-120 min, no significant change in permeability was measured, excluding a time-dependent increase in permeability (“control”, −5.11±3.07%, n=16, P=0.7, Wilcoxon, FIG. 2A). […]

[7] = system: cultured brain endothelial cells; conditions: cited from earlier work
[8] = 30 minutes from seizure onset, recurrent seizures, n=7
[9] = ~10 minutes from seizure onset, 4AP or PTX pooled, n=8

Compound: Nc1ccncc1 [4AP]
- increase in vessel permeability to NaFlu [1, 8]: 14.17±4.65%
- increase in vessel diameter [1]: 10.05±1.01%
- increase in vessel permeability to NaFlu [1, 9]: 20.01±7.24%

Compound: CC(=O)OCOC(=O)CN(CC(=O)OCOC(C)=O)c1ccccc1OCCOc1ccccc1N(CC(=O)OCOC(C)=O)CC(=O)OCOC(C)=O [BAPTA-AM]
- vascular side effect in vivo [2]: massive vasoconstriction and associated ischemia

Compound: N[C@H](CCCP(=O)(O)O)C(=O)O [D-AP5, R-2-amino-5-phosphonopentanoate]
- change in vessel permeability by glutamate in the presence of antagonist ([3]; glutamate + D-AP5 50 μM): −3.81±4.34%
- averaged percent increase in permeability in the peri-infarct cortex ([4]; 30 and 60 min following PT, n=7, p=0.13): non-significant change
- spatial progression of BBB dysfunction in the peri-ischemic region ([4]; 30 and 60 minutes after clot induction, vs absence of D-AP5): significantly reduced; also recorded: significantly diminishes
- seizure intensity (ECoG) [5]: no impact
- seizure-induced permeability increase / BBB damage [5]: diminished

Compound: CN[C@H](CC(=O)O)C(=O)O [NMDA, N-methyl-d-aspartate]
- increase in vessel permeability [3]: 18.44±7.58%

Compound: N[C@@H](CCC(=O)O)C(=O)O [glutamate]
- increase in vessel permeability [3]: 18.15%±5.9%
- change in vessel diameter ([3]; glutamate application with TTX, CNQX, PTX): 3.12±2.24%
- shift in vascular diameter ([3]; topical glutamate 1 mM with axonal and synaptic transmission blockers): not inducing a shift in vascular diameter
- calcium signal in the vessel wall ([6]; drop application of glutamate): Rise in calcium signal
- duration of increase in endothelial intracellular calcium ([6]; drop application of glutamate 0.01-1 mM, n=109): 12.5 ± 1.3 s
- permeability of cultured brain endothelial cells [7]: increase permeability
- tight junction protein occludin ([7]; glutamate 1 mM, NMDA-R mediated): reduction in the levels and cellular redistribution
- electrical resistance ([7]; glutamate 1 mM): lower electrical resistance

Compound: CC12CC3CC(C)(C1)CC(N)(C3)C2 [memantine]
- seizure intensity (ECoG) [5]: no impact
- seizure-induced permeability increase / BBB damage [5]: diminished

Compound: picrotoxin [PTX]
- increase in vessel permeability to NaFlu [1, 8]: 14.17±4.65%
- increase in vessel diameter [1]: 10.05±1.01%
- increase in vessel permeability to NaFlu [1, 9]: 20.01±7.24%
